Results: article PMC12657321, “Pre-clinical evaluation of a potent and effective Pin1-degrading agent in pancreatic cancer” (Molecular Therapy Oncology, 2025)
Non-standard residues stand in square brackets, D forms with d. Residues, ends and D or L forms follow the SMILES beside them. *: point of attachment. Trp(6-Cl) = N[C@@H](Cc1c[nH]c2cc(Cl)ccc12)C(=O)O; Pip = O=C(O)[C@@H]1CCCCN1; ClAc = O=C(CCl)*

Assays:
[1] = biological target: T1, human Pin1 (Homo sapiens, UniProt Q13526); experiment: Covalent complex formation with Pin1 by mass spectrometry; assay type: binding; settings: ligand 20 μM, 2:1 ligand-to-protein ratio, 10 min incubation
T1 construct: Residues 1–163 of human Pin1 were expressed with a thrombin cleavage site and a HisTag at the N-terminus; 6xHis (N); thrombin cleavage site (N); made in house; host or cells: E. coli

[2] = system: KPC cells; assay type: cell-based, mouse; settings: 72 h
Procedure: The effect of Pin1 degradation by 164B8 on cell viability was assessed using live-cell analysis (IncuCyte S3). […] Furthermore, to evaluate the acute single-dose toxicity of 164B8 in vivo, CD-1 immune-competent mice were exposed to increasing doses of 164B8. […] Therefore, a maximum tolerated dose was not reached (Figure S12).
Figure S11: Mia PaCa-2 and KPC cells were treated with different doses of 164B8, and the
IncuCyte S3 live-cell analysis system was used to monitor the agent’s activity every 3 hours for
(1 picture or pasted object on this page, not shown here)

[3] = biological target: Pin1 in BxPC3 cells (Homo sapiens, UniProt Q13526); experiment: Pin1 degradation by western blot in BxPC3 cells; assay type: cell-based; parameters: endogenous in cells; host or cells: BxPC3, MIA PaCa-2; settings: BxPC3, 0.5-15 μM for 24 h, Pin1 relative to β-actin
Procedure: To ascertain that the plasma-stable agent 164B8 retained its ability to induce Pin1 degradation in cells, we tested it in three pancreatic cancer cell lines—human BxPC3 and MIA PaCa-2, and the mouse pancreatic cancer cell line KPC—using western blot analysis (Figure 2).
Figure 2 Degradation of Pin1 in different cell lines in response to 164B8 treatment BxPC3, MIA PaCa-2, and KPC were each treated with 0.1% DMSO and concentrations of 164B8 ranging between 0.5 and 15 μM for 24 h, and Pin1 levels were quantified with respect to β-actin using a specific anti-Pin1 antibody and western blotting (uncropped blots are reported in Figure S6).
At the end of the treatments, cells were lysed with a lysis buffer containing 20 mM Tris (pH 7.4), 1% Triton X-100, 5 mM EDTA, 0.1% sodium dodecyl sulfate (SDS), 1% IGEPAL, 0.5% sodium deoxycholate, 120 mM NaCl, and a protease inhibitor cocktail and PhosSTOP (Sigma-Aldrich). Lysates were then centrifuged at 16,000 × g for 20 min at 4°C, and the supernatants were collected. Protein concentrations were determined using the Pierce BCA Protein Assay Kit (Thermo Fisher Scientific) according to the manufacturer’s protocol. For traditional western blotting (Figure 2), samples were loaded onto precast Bis-Tris gels and subsequently transferred onto PVDF membranes. […]

[4] = system: NSG mice; experiment: Toxicity after repeated doses in NSG mice (CBC, observation); assay type: in vivo, mouse
Procedure: Figure 6 Toxicity of 164B8 after repeated doses in NSG mice Blood from mice treated as described in Figure 5 was collected and evaluated at the end of the experiment. Peripheral blood from mice was collected and analyzed by standard complete blood count (CBC). (A) Body weight, (B) white blood cell (WBC) counts (×10^9 cells/L), (C) hemoglobin (HGB) concentration (g/dL), and (D) platelet counts (×10^9 cells/L, log scale) in peripheral blood were determined. Data are presented as individual values with mean ± SD. Dotted horizontal lines indicate physiological reference ranges. Statistical comparisons were performed using one-way AVOVA; p values are shown in each panel.
Bioluminescent imaging (BLI) was performed one week post-inoculation. Based on imaging intensity, mice were re-grouped to ensure six animals per group. The PIN1 inhibitor was administered via intraperitoneal injection at doses of 30 mg/kg or 60 mg/kg, once daily, 5 days per week for 2 weeks. Tumor engraftment and growth were monitored by in vivo BLI. D-luciferin potassium salt was dissolved in sterile PBS to a final concentration of 16.6 mg/mL and mice were injected intraperitoneally with D-luciferin solution (0.139 g luciferin/kg body weight), then imaged 10–15 min after luciferin injection using an IVIS Spectrum Imaging System (Lago X) with identical exposure times and binning settings for all mice. Bioluminescence signal intensity was quantified as total flux (photons/s) within a region of interest (ROI) using Aura image software. BLI was performed once every week during the treatment. After 2 weeks of treatment, mice were euthanized 6 h after the final dose. Blood samples were collected via cardiac puncture, and normal peritoneum, intestine, and liver tissues were harvested and snap-frozen on dry ice.

[5] = Wild-type mouse plasma stability; assay type: in vitro ADME; settings: 37°C, up to 6 h, acetonitrile quench, LC-MS/MS, value given in h, read-out: Stability half-life, Mouse WT (converted)
Procedure: (§1) A solution of a Pin1 inhibitor was spiked into blank plasma at 1 μg/mL in various solutions, including an aqueous buffer (1× phosphate-buffered saline; Fisher Scientific, Fair Lawn, NJ), human plasma (Innovative Research Inc., Novi, MI), wild-type mouse plasma (Innovative Research Inc., Novi, MI), plasma form esterase-deficient mice (City of Hope, Duarte, CA), and plasma from Black 6-Cg mice (City of Hope, Duarte, CA).
(§2) The spiked plasma samples were incubated at 37°C for up to 6 h. At each designated time point, a 20 μL aliquot of the incubation sample was removed and quenched in 100 μL of acetonitrile. At the end of the incubation, the quenched samples were vortexed and centrifuged for 10 min at 4°C and 20,000 × g. The resulting supernatant was reconstituted and analyzed by LC-MS/MS.
(§3) Table S2. Stability half-life of agents reported in Table 1 after incubation at 37 °C in various media. Acq represents aqueous buffer composed of 1x phosphate buffered saline (Fisher Scientific, Fair Lawn, NJ); human represents human plasma (Innovative Research Inc., Novi, MI); mouse wt represents wild type mouse plasma (Innovative Research Inc., Novi, MI); mouse ES1e represents plasma form esterase deficient mice (City of Hope, Duarte, CA); mouse B6-Cg represents plasma from black 6-Cg mice (City of Hope, Duarte, CA). See Figure 1 for the chemical structures of these compounds.
(§4) Compound Acq Human Mouse Mouse ES1e Mouse

[6] = Stability in aqueous buffer (1x PBS); assay type: physicochemical; settings: 1x phosphate buffered saline, 1 μg/mL, 37°C, up to 6 h, acetonitrile quench, LC-MS/MS
Procedure: as §1, §2, §3, §4

[7] = 30 mg/kg i.p. for 2 weeks, blood at end of experiment

Chain of Pin1 in BxPC3 cells (Q13526 whole entry): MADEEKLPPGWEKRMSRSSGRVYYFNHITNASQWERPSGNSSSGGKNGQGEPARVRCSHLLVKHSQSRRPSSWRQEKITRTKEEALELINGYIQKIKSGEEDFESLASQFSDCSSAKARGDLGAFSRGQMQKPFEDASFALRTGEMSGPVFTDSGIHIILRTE
T1 sequence (Q13526 whole entry, the tested form may be a part): as the sequence (Q13526 whole entry) above

CNC(=O)[C@H](Cc1c[nH]c2ccccc12)NC(=O)[C@@H]1CCCCN1C(=O)[C@H](Cc1c[nH]c2cc(Cl)ccc12)NC(=O)CCl [164B8] (ClAc-[Trp(6-Cl)]-[Pip]-Trp-NHMe)
% Complex (MS) [1]: ∼100%
EC50 [2]: 5.3 µM
DC50 of Pin1 degradation [3]: sub-micromolar
Tolerability of repeated dosing ([4]; 30 mg/kg i.p. for 2 weeks): generally well tolerated
Anemia (hemoglobin, CBC) [4, 7]: mild anemia
Thrombocytopenia (platelet counts, CBC) [4, 7]: moderate thrombocytopenia
Mice euthanized because of ascites development ([4]; 60 mg/kg i.p. for 2 weeks, final time point, no obvious carcinomatosis): two of six mice
half-life at 1 μg/mL [5]: ~4.5 h
Stability half-life, Acq (aqueous buffer) [6]: > 5 h
